Read-outs that look alike come from different tables or passages of the source.
Columns and labels:
Assay in all cases: Eurofins kinase selectivity profile against 380 other human recombinant kinases (Table S2)
Assay type in all cases: biochemical
[1] = molecular target: T1, 380 human recombinant protein kinases (Homo sapiens, UniProt P24723); details: PKCη(h), read-out: Inhibition rate
T1 construct: purchased Eurofins (Celle Lévescault)
In short: (§1)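 Selectivity panel of 380 human recombinant protein kinases, screened by Eurofins at a range of concentrations.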

[2] = molecular target: T2, 380 human recombinant protein kinases (Homo sapiens, UniProt P68400); details: read-out: Inhibition rate; for inhibition at 0.01 µM: 10 nM; for inhibition at 0.1 µM: 100 nM; for inhibition at 1 µM: 1000 nM
T2 construct: purchased Eurofins (Celle Lévescault)
T2 sequence (P68400 whole entry): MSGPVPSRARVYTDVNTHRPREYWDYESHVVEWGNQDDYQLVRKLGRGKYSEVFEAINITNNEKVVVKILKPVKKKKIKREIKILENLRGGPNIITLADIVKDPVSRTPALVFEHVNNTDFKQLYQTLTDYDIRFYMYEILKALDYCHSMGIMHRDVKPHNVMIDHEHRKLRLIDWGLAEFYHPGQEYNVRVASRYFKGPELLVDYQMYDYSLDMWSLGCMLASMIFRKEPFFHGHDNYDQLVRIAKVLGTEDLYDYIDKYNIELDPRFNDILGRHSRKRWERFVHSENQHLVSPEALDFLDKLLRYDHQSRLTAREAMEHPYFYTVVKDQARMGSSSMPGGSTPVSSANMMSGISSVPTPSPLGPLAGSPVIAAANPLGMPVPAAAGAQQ
In short: as §1

[3] = molecular target: T3, 380 human recombinant protein kinases (Homo sapiens, UniProt Q96RG2); details: PASK(h), read-out: Inhibition rate
T3 construct: purchased Eurofins (Celle Lévescault)
T3 sequence (Q96RG2 whole entry): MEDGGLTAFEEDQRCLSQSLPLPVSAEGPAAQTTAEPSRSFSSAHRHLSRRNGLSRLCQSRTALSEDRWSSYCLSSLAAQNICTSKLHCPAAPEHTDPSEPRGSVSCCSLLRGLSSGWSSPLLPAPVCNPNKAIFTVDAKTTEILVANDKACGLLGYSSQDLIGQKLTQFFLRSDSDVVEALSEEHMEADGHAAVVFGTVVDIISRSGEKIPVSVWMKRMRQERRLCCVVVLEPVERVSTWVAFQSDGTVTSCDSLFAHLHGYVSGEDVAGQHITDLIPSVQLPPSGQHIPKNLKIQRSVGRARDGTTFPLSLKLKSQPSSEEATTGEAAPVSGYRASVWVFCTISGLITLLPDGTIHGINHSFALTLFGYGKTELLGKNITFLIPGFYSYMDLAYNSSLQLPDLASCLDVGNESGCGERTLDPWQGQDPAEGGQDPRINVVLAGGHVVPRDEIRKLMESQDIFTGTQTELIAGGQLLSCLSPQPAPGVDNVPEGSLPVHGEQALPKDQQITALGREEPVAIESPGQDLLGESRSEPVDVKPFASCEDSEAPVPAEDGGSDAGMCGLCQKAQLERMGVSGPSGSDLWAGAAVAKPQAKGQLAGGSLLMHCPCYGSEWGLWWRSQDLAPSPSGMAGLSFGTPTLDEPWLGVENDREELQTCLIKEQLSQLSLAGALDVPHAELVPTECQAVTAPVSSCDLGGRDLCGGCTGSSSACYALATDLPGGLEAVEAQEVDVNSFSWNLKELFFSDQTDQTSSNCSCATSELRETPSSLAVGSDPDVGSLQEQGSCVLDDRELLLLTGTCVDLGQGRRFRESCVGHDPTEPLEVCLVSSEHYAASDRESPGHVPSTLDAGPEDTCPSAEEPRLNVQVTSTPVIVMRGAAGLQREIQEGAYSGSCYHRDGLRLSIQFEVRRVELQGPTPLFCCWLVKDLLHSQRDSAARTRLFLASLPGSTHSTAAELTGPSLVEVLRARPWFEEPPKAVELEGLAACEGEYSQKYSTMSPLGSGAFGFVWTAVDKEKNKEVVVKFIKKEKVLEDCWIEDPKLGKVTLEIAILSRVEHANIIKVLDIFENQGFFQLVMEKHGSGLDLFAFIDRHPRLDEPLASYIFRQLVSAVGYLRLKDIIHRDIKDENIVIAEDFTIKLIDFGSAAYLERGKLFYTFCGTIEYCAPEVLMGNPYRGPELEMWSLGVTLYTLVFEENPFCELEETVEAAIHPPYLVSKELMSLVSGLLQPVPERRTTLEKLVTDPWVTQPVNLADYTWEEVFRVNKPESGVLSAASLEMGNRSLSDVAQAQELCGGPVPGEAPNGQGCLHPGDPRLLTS
In short: as §1

[4] = molecular target: T4, 380 human recombinant protein kinases (Homo sapiens, UniProt P07332); details: Fes(h), read-out: Inhibition rate
T4 construct: purchased Eurofins (Celle Lévescault)
T4 sequence (P07332 whole entry): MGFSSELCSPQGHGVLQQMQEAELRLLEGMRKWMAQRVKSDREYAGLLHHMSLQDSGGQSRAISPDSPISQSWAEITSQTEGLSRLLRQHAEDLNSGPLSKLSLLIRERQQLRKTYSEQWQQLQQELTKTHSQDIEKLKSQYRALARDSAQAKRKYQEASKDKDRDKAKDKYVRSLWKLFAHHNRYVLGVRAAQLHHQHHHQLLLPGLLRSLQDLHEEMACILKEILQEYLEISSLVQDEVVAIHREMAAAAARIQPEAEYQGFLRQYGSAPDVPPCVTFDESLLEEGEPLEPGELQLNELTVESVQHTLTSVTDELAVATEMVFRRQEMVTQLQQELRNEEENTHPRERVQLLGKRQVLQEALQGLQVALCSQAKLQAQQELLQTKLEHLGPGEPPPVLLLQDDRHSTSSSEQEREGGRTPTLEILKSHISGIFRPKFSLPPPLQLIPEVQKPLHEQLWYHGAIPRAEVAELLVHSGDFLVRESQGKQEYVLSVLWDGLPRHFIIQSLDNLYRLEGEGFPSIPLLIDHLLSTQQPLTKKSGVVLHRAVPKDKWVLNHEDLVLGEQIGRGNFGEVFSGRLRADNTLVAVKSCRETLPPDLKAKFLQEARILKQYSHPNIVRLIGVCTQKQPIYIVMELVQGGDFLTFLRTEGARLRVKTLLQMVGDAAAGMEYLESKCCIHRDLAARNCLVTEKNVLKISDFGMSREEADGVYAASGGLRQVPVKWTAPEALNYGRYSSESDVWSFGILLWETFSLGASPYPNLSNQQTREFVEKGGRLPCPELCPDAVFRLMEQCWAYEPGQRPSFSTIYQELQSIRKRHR
In short: as §1

[5] = molecular target: T5, 380 human recombinant protein kinases (Homo sapiens, UniProt P34947); details: GRK5(h), read-out: Inhibition rate
T5 construct: purchased Eurofins (Celle Lévescault)
T5 sequence (P34947 whole entry): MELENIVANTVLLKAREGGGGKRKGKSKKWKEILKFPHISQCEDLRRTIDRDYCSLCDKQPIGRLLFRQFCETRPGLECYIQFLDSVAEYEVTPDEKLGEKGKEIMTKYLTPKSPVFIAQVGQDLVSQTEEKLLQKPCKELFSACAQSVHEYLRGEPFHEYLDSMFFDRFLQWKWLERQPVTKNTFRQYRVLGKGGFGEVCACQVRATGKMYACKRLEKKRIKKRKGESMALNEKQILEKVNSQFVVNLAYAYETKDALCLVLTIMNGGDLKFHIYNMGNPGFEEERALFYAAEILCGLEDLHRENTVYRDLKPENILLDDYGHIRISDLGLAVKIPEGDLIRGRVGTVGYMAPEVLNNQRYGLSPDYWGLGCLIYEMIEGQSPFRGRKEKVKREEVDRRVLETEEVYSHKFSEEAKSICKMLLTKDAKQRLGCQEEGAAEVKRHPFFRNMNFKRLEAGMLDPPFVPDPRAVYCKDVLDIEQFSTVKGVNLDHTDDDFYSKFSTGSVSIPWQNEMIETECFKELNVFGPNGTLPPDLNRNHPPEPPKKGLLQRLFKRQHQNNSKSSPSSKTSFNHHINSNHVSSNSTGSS
In short: as §1

[6] = molecular target: T6, 380 human recombinant protein kinases (Homo sapiens, UniProt P45984); details: JNK2α2(h), read-out: Inhibition rate
T6 construct: purchased Eurofins (Celle Lévescault)
In short: as §1

[7] = molecular target: T7, 380 human recombinant protein kinases (Homo sapiens, UniProt Q8NG66); details: NEK11(h), read-out: Inhibition rate
T7 construct: purchased Eurofins (Celle Lévescault)
T7 sequence (Q8NG66 1-645): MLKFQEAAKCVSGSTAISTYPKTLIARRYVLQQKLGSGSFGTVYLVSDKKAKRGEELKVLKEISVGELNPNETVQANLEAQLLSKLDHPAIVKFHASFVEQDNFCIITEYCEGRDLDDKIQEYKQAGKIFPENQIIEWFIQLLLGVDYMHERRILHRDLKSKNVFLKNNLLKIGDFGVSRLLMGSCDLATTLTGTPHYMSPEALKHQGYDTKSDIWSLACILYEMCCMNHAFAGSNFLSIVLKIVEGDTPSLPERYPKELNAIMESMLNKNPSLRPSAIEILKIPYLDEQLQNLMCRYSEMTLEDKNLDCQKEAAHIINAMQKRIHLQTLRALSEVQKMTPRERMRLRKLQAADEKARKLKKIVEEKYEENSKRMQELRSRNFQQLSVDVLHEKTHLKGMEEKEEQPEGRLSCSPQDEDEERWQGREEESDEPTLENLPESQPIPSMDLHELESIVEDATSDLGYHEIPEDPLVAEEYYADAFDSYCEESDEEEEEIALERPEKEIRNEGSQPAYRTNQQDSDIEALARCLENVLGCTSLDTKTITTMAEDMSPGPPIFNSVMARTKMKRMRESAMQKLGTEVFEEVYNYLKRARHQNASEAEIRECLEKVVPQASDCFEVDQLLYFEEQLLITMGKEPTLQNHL
In short: as §1

[8] = molecular target: T8, 380 human recombinant protein kinases (Homo sapiens, UniProt Q06418); details: Rse(h), read-out: Inhibition rate
T8 construct: purchased Eurofins (Celle Lévescault)
T8 sequence (Q06418 41-890): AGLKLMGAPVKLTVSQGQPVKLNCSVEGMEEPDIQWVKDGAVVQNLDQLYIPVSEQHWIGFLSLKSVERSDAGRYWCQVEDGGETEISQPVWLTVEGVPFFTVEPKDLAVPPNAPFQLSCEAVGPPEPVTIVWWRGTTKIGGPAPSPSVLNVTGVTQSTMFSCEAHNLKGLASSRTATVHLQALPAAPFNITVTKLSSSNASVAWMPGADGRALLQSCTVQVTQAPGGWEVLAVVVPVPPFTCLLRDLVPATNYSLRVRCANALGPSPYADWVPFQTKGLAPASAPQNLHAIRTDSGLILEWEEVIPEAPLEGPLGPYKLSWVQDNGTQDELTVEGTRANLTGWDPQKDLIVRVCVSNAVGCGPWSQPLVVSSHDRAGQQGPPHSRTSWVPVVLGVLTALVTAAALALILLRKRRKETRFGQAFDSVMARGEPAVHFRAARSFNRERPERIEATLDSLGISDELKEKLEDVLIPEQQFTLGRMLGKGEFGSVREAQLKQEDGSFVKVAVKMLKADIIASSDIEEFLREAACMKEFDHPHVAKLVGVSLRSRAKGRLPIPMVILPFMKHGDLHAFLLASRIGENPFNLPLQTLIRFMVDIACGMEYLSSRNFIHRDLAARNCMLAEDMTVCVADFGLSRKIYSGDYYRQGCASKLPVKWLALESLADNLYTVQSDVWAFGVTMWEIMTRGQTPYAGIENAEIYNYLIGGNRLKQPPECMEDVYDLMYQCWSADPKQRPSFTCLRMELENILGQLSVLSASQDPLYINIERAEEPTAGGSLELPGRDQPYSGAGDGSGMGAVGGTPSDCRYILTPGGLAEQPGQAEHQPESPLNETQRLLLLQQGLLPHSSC
In short: as §1

[9] = molecular target: T9, 380 human recombinant protein kinases (Homo sapiens, UniProt Q16513); details: PRK2(h), read-out: Inhibition rate
T9 construct: purchased Eurofins (Celle Lévescault)
In short: as §1

[10] = molecular target: T10, 380 human recombinant protein kinases (Homo sapiens, UniProt Q86Z02); details: HIPK1(h), read-out: Inhibition rate
T10 construct: purchased Eurofins (Celle Lévescault)
T10 sequence (Q86Z02 whole entry): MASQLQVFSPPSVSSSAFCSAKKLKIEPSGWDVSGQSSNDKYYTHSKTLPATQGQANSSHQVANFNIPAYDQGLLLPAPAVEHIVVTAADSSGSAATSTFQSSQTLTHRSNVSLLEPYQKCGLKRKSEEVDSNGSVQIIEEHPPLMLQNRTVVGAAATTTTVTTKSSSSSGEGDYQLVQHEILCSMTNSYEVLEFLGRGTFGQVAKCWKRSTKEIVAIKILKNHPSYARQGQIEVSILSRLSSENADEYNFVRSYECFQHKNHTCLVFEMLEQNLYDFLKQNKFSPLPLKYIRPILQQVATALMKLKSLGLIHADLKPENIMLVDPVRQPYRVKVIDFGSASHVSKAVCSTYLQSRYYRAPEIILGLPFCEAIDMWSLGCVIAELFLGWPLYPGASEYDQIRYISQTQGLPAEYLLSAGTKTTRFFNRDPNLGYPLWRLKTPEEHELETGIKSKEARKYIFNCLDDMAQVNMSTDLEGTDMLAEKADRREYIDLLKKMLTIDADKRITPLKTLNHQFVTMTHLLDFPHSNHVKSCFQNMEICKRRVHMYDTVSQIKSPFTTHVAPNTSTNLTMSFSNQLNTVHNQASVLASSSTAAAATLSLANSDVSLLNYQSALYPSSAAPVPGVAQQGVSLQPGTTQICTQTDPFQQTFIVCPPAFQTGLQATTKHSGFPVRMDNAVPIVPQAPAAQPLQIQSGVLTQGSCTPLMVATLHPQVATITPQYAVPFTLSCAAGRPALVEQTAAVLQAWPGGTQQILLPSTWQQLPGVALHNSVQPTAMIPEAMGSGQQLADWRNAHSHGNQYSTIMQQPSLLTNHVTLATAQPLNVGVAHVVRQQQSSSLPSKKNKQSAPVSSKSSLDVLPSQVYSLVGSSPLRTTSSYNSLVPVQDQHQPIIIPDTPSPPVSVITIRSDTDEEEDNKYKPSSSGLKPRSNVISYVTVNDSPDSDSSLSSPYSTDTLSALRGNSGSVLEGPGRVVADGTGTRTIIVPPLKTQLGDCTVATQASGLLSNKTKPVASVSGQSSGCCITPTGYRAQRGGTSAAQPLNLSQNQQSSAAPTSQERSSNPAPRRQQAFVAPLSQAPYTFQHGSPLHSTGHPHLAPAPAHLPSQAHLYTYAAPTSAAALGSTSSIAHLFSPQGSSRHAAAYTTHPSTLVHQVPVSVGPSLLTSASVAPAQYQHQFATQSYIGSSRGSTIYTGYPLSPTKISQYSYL
In short: as §1

T1 sequence (P24723 whole entry): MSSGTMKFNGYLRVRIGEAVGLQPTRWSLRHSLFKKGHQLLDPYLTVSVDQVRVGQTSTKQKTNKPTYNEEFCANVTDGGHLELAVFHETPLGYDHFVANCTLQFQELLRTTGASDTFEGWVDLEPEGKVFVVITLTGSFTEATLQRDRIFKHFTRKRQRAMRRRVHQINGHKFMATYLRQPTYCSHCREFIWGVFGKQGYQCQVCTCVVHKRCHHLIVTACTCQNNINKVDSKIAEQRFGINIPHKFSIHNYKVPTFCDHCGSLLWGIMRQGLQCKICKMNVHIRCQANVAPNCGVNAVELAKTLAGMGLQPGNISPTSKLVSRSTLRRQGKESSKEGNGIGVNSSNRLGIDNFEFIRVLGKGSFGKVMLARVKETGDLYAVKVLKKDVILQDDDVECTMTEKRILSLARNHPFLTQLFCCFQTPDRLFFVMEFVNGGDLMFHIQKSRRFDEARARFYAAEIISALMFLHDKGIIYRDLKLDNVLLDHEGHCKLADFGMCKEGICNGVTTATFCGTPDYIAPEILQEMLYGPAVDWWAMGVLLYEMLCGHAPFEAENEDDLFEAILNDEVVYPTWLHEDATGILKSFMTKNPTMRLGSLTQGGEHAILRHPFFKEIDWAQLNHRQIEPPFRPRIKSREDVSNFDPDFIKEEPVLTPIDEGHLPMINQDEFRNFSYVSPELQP

Work on C=CC(=O)Nc1cc(-c2cc(-c3cc4c([nH]3)CCNC4=O)ccn2)ccc1OC(F)(F)F [compound 11] yielded an inhibition at 0.01 µM ([1]; 10 nM) of 1%, an inhibition at 0.1 µM ([1]; 100 nM) of 10% and an inhibition at 1 µM ([1]; 1000 nM) of 9%. The inhibition at 0.01 µM ([2]; CK2(h)) was -3%, the inhibition at 0.1 µM ([2]; CK2(h)) was -1% and the inhibition at 1 µM ([2]; CK2(h)) was 0%. The inhibition at 0.01 µM ([2]; CK2α1(h)) was -9%, the inhibition at 0.1 µM ([2]; CK2α1(h)) was -2% and the inhibition at 1 µM ([2]; CK2α1(h)) was 9%. It also gave an inhibition at 0.01 µM ([3]; 10 nM) of 13%, an inhibition at 0.1 µM ([3]; 100 nM) of 4% and an inhibition at 1 µM ([3]; 1000 nM) of 12%. For the same compound, the inhibition at 0.01 µM ([4]; 10 nM) was -7%, the inhibition at 0.1 µM ([4]; 100 nM) was -5% and the inhibition at 1 µM ([4]; 1000 nM) was 0%. For the same compound, the inhibition at 0.01 µM ([5]; 10 nM) was -6%, the inhibition at 0.1 µM ([5]; 100 nM) was -2% and the inhibition at 1 µM ([5]; 1000 nM) was 0%. For the same compound, the inhibition at 0.01 µM ([6]; 10 nM) was -6%, the inhibition at 0.1 µM ([6]; 100 nM) was 5% and the inhibition at 1 µM ([6]; 1000 nM) was 23%. It also gave an inhibition at 0.01 µM ([7]; 10 nM) of -1%, an inhibition at 0.1 µM ([7]; 100 nM) of 0% and an inhibition at 1 µM ([7]; 1000 nM) of -4%. The inhibition at 0.01 µM ([8]; 10 nM) was 7%, the inhibition at 0.1 µM ([8]; 100 nM) was -3% and the inhibition at 1 µM ([8]; 1000 nM) was -5%. It also gave an inhibition at 0.01 µM ([9]; 10 nM) of -2%, an inhibition at 0.1 µM ([9]; 100 nM) of 3% and an inhibition at 1 µM ([9]; 1000 nM) of 5%. It also gave an inhibition at 0.01 µM ([10]; 10 nM) of -21%, an inhibition at 0.1 µM ([10]; 100 nM) of -9% and an inhibition at 1 µM ([10]; 1000 nM) of -3%.

Reference: article PMC11233931, “Remodeling tumor‐associated macrophage for anti‐cancer effects by rational design of irreversible inhibition of mitogen‐activated protein kinase‐activated protein kinase 2” (MedComm, 2024)
